Data from PubChem BioAssay AID1919013 (Molecular Pharmacology Branch, DTP, NCI, 2023).
Values joined by “and” are separate entries in the source; they are usually repeats but may differ in a detail not shown here. Equal entries are not always repeated.

Test system: LG0703-F498-PDC complex spheroid growth
Assay: Anticancer human tumor LG0703-F498-PDC patient-derived lung adenocarcinoma cell line growth inhibition [AhR]
Conditions: for viability, T/C: stronger effect = lower value
Procedure, shortened: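 Complex tumor spheroids co-cultured with HUVEC and human MSC stroma; AhR antagonists tested in combination with standard-of-care and investigational agents. Top concentration at or near clinical Cmax (else 10 microM), half-log dilutions; growth expressed as percent test/control.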

[1] = curve of first compound, second compound 0.1 µM
[2] = curve of first compound, second compound 0.316 µM
[3] = curve of first compound, second compound 1 µM
[4] = curve of first compound, second compound 3.16 µM
[5] = curve of first compound, second compound 10 µM
[6] = second compound 0.1 µM, first compound 0.0316 µM
[7] = second compound 0.1 µM, first compound 0.1 µM
[8] = second compound 0.1 µM, first compound 0.316 µM
[9] = second compound 0.1 µM, first compound 1 µM
[10] = second compound 0.1 µM, first compound 3.16 µM
[11] = second compound 0.1 µM, first compound 10 µM
[12] = second compound 0.316 µM, first compound 0.0316 µM
[13] = second compound 0.316 µM, first compound 0.1 µM
[14] = second compound 0.316 µM, first compound 0.316 µM
[15] = second compound 0.316 µM, first compound 1 µM
[16] = second compound 0.316 µM, first compound 3.16 µM
[17] = second compound 0.316 µM, first compound 10 µM
[18] = second compound 1 µM, first compound 0.0316 µM
[19] = second compound 1 µM, first compound 0.1 µM
[20] = second compound 1 µM, first compound 0.316 µM
[21] = second compound 1 µM, first compound 1 µM
[22] = second compound 1 µM, first compound 3.16 µM
[23] = second compound 1 µM, first compound 10 µM
[24] = second compound 3.16 µM, first compound 0.0316 µM
[25] = second compound 3.16 µM, first compound 0.1 µM
[26] = second compound 3.16 µM, first compound 0.316 µM
[27] = second compound 3.16 µM, first compound 1 µM
[28] = second compound 3.16 µM, first compound 3.16 µM
[29] = second compound 3.16 µM, first compound 10 µM
[30] = second compound 10 µM, first compound 0.0316 µM
[31] = second compound 10 µM, first compound 0.1 µM
[32] = second compound 10 µM, first compound 0.316 µM
[33] = second compound 10 µM, first compound 1 µM
[34] = second compound 10 µM, first compound 3.16 µM
[35] = second compound 10 µM, first compound 10 µM
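Further: luminescence taken as a proxy for viable cell amount.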
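Wherever viability, T/C is given: percent of DMSO vehicle control where 100% means growth equal to vehicle.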

Row | Structure (SMILES) | IC50 [1] [nM] | IC50 [2] [nM] | IC50 [3] [nM] | IC50 [4] [nM] | IC50 [5] [nM] | viability, T/C [6] [%] | viability, T/C [7] [%] | viability, T/C [8] [%] | viability, T/C [9] [%] | viability, T/C [10] [%] | viability, T/C [11] [%] | viability, T/C [12] [%] | viability, T/C [13] [%] | viability, T/C [14] [%] | viability, T/C [15] [%] | viability, T/C [16] [%] | viability, T/C [17] [%] | viability, T/C [18] [%] | viability, T/C [19] [%] | viability, T/C [20] [%] | other results
1 | Nc1ccccc1NC(=O)c1ccc(CNC(=O)OCc2cccnc2)cc1 + CC(CO)NC(=O)c1cc(-c2ccc(Cl)cc2)nn(-c2cnn(C)c2)c1=O | 401 | 428 | 461 | 413 | 335 | 82.4 | 86.8 | 56.2 | 19.3 | 2.71 | 0.45 | 72.8 | 71.6 | 59.7 | 22.6 | 2.65 | 0.63 | 77.8 | 79.9 | 64.5 | viability, T/C [21]: 19.6%; viability, T/C [22]: 3.74%; viability, T/C [23]: 0.67%; viability, T/C [24]: 74.3%; viability, T/C [25]: 71.6%; viability, T/C [26]: 59.3%; viability, T/C [27]: 19.7%; viability, T/C [28]: 2.42%; viability, T/C [29]: 0.89%; viability, T/C [30]: 70.4%; viability, T/C [31]: 77%; viability, T/C [32]: 48.1%; viability, T/C [33]: 21.8%; viability, T/C [34]: 3.12%; viability, T/C [35]: 1.17%
2 | Nc1ccccc1NC(=O)c1ccc(CNC(=O)OCc2cccnc2)cc1 + Cc1cncc(-c2nc(NCCc3c[nH]c4ccccc34)c3ncn(C(C)C)c3n2)c1 | 849 | 563 | 571 | < 31.6 | < 31.6 | 93 | 89.2 | 68.7 | 53.4 | 4.49 | 0.69 | 100 | 90.4 | 67.2 | 34.5 | 3.29 | 0.43 | 78.4 | 87.5 | 62.8 | viability, T/C [21]: 36.5%; viability, T/C [22]: 2.86%; viability, T/C [23]: 0.16%; viability, T/C [24]: 34%; viability, T/C [25]: 23.7%; viability, T/C [26]: 21%; viability, T/C [27]: 10.6%; viability, T/C [28]: 3.34%; viability, T/C [29]: 0.15%; viability, T/C [30]: 0.75%; viability, T/C [31]: 0.81%; viability, T/C [32]: 0.77%; viability, T/C [33]: 0.69%; viability, T/C [34]: 0.77%; viability, T/C [35]: 0.17%
3 | O=C(C=Cc1cccc(S(=O)(=O)Nc2ccccc2)c1)NO |  |  |  |  |  |  |  |  |  |  |  |  |  |  |  |  |  |  |  |  | viability, T/C (compound 0.0316 µM): 101% and 111% and 110%; viability, T/C (compound 0.1 µM): 111% and 119% and 116%; viability, T/C (compound 0.316 µM): 94% and 91.7% and 82.7%; viability, T/C (compound 1 µM): 48.1% and 42% and 45.8%; viability, T/C (compound 3.16 µM): 12% and 11.7% and 7.36%; viability, T/C (compound 10 µM): 1.95% and 2.42% and 1.39%; IC50 (curve of compound): 966 nM and 835 nM and 827 nM
4 | COc1cccc2c1C(=O)c1c(O)c3c(c(O)c1C2=O)CC(O)(C(=O)CO)CC3OC1CC(N)C(O)C(C)O1 (configuration not stated) + Cc1ccccc1N=Nc1ccc(NC(=O)c2ccnn2C)c(C)c1 | 687 | 552 | 564 | 573 | 680 | 92.4 | 90 | 69.9 | 40.7 | 11.5 | 0.88 | 93.5 | 89.7 | 59.3 | 38.2 | 11.3 | 0.75 | 79.1 | 95.6 | 64.9 | viability, T/C [21]: 32.1%; viability, T/C [22]: 10.6%; viability, T/C [23]: 0.84%; viability, T/C [24]: 92.5%; viability, T/C [25]: 85.9%; viability, T/C [26]: 67.2%; viability, T/C [27]: 34.2%; viability, T/C [28]: 8.26%; viability, T/C [29]: 0.48%; viability, T/C [30]: 80.8%; viability, T/C [31]: 82.3%; viability, T/C [32]: 69.9%; viability, T/C [33]: 40.4%; viability, T/C [34]: 5.43%; viability, T/C [35]: 2.16%
5 | NS(=O)(=O)OCC1CC(n2ccc3c(NC4CCc5ccccc54)ncnc32)CC1O (configuration not stated) + Cc1cncc(-c2nc(NCCc3c[nH]c4ccccc34)c3ncn(C(C)C)c3n2)c1 | 3930 | 2730 | 2200 | 725 | < 31.6 | 105 | 113 | 66.7 | 101 | 44 | 30.7 | 113 | 97.3 | 53.3 | 97.2 | 39.8 | 28.9 | 111 | 79.7 | 54 | viability, T/C [21]: 106%; viability, T/C [22]: 32.6%; viability, T/C [23]: 26.2%; viability, T/C [24]: 70.9%; viability, T/C [25]: 70.1%; viability, T/C [26]: 50%; viability, T/C [27]: 55.4%; viability, T/C [28]: 27.2%; viability, T/C [29]: 16.9%; viability, T/C [30]: 2.35%; viability, T/C [31]: 3.18%; viability, T/C [32]: 6.94%; viability, T/C [33]: 2.85%; viability, T/C [34]: 6.79%; viability, T/C [35]: 5.98%
6 | COc1cc(Nc2ncc3c(n2)-c2ccc(Cl)cc2C(c2c(F)cccc2OC)=NC3)ccc1C(=O)O + CC(CO)NC(=O)c1cc(-c2ccc(Cl)cc2)nn(-c2cnn(C)c2)c1=O | 6880 | 8340 | 5110 | 4360 | 3250 | 87.2 | 88.2 | 78.5 | 71 | 61.7 | 44.4 | 94.9 | 79.2 | 78.9 | 70.2 | 56.3 | 48.8 | 91.6 | 96.2 | 75.1 | viability, T/C [21]: 68.2%; viability, T/C [22]: 56.4%; viability, T/C [23]: 42.7%; viability, T/C [24]: 91.6%; viability, T/C [25]: 75.2%; viability, T/C [26]: 70.7%; viability, T/C [27]: 63.9%; viability, T/C [28]: 50.3%; viability, T/C [29]: 44.5%; viability, T/C [30]: 92%; viability, T/C [31]: 77.4%; viability, T/C [32]: 65%; viability, T/C [33]: 65%; viability, T/C [34]: 52.7%; viability, T/C [35]: 37.6%
